Reference: US10882833B2, “Phenylate derivative, preparation method therefor, and pharmaceutical composition and uses thereof” (Institute of Materia Medica, Chinese Academy of Medical …, priority 2016, dated 2021)
Counter-ions that a name gives are not always drawn.

Tests used:
[1] = target: interaction between PD-1 and PD-L1 (Homo sapiens (Human), UniProt Q9NZQ7); assay: Cisbio PD-1/PD-L1 binding assay kit (HTRF); conditions: 8-10 concentrations, read-out: IC50, inhibitory activity at molecular level on the interaction between PD-1 and PD-L1
interaction between PD-1 and PD-L1, sequence (Q9NZQ7 19-238): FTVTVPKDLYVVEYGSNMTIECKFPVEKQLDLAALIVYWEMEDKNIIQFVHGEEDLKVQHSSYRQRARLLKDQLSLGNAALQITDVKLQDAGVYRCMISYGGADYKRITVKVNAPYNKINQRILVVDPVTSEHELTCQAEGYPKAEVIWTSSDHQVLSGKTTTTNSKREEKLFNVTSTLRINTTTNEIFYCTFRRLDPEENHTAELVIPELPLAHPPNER
From the text: • 1. In vitro activity evaluation: Cisbio PD-1/PD-L1 binding assay kit was applied for the detection method of in vitro enzymology level. Screening Principles and Methods of PD-1/PD-L1 Small Molecule Inhibitors • 1) Principle: PD-1 protein is with HIS tag, and PD-1 ligand PD-L1 is with hFc tag. Eu labeled anti-hFc antibody and XL665 labeled anti-HIS antibody are combined with the above two label proteins respectively. After laser excitation, energy can be transferred from donor Eu to receptor XL665, allowing XL665 to glow. […] Reagents should be dispensed in the following order. For 384-well white ELISA plate, 2 μl of diluent or target compound diluted with diluent was added to each well, and then 4 μl of PD-1 protein and 4 μl of PD-L1 protein were added per well, incubated for 15 min at room temperature; and 10 μl of a mixture of anti-Tag1-Eu3+ and anti-Tag2-XL665 was added per well and incubated for 1 h to 4 h at room temperature and the fluorescence signals at 665 nm and 620 nm were measured with an Envison instrument. HTRF rate=(665 nm/620 nm)*10^4. 8-10 concentrations were detected for each compound and IC50 was calculated by Graphpad software. • 3) The results of the screening were shown in Table 1.

[2] = test system: advanced Hodgkin's lymphoma (HL); conditions: patients with no treatment response to any approved drug; cited from earlier work
[3] = test system: pleural mesothelioma (PM); conditions: 25 patients with pleural mesothelioma; cited from earlier work

Molecule	IC50 [1]	further results
CC(=O)NCCNCc1cc(Cl)c(OCc2cccc(-c3ccccc3)c2Br)cc1OCC1CC1 [Example 5, N-acetylaminoethyl-4-(2-bromo-3-phenylbenzyloxy)-5-chloro-2-(cyclopropylmethoxy)benzylamine]	1150 nM	–
NC(=O)[C@H](CO)NCc1cc(Cl)c(OCc2cccc(-c3ccccc3)c2Br)cc1OCC1CC1 (stereo in doubt) [Example 9, 2-(4-(2-bromo-3-phenylbenzyloxy)-5-chloro-2-(cyclopropylmethoxy)benzylamino)-3-hydroxypropanamide]	81.6 nM	–
nivolumab [Opdvio]	–	treatment outcome in advanced Hodgkin's lymphoma [2]: complete remission
O=C(O)[C@@H]1C[C@H](O)CN1Cc1cc(Cl)c(OCc2cccc(-c3ccc4c(c3)OCCO4)c2Br)cc1OCC1CC1 [Example 17, (S,S)—N-(4-(2-bromo-3-(2,3-dihydrobenzo[b][1,4]dioxin-6-yl)benzyloxy)-5-chloro-2-(cyclopropylmethoxy)benzyl)-4-hydroxyproline]	40.5 nM	–
pembrolizumab [Keytruda]	–	disease control rate [3]: 76%; overall response rate (ORR) [3]: 28%; treatment outcome in advanced Hodgkin's lymphoma [2]: complete remission
NC(=O)COc1cc(OCc2cccc(-c3ccccc3)c2Br)c(Cl)cc1CN[C@@H](CO)C(=O)O [Example 1, (S)—N-(4-(2-bromo-3-phenylbenzyloxy)-5-chloro-2-(carbamoylmethoxy)benzyl)serine]	312 nM	–
C#CCOc1cc(OCc2cccc(-c3ccccc3)c2Br)c(Cl)cc1CNCCNC(C)=O [Example 4, N-acetylaminoethyl-4-(2-bromo-3-phenylbenzyloxy)-5-chloro-2-(prop-2-ynyloxy)benzylamine]	1800 nM	–
CN(C)C(=O)COc1cc(OCc2cccc(-c3ccccc3)c2Br)c(Cl)cc1CNC(CO)C(=O)O (stereo not shown) [Example 6]	42.5 nM	–

The remaining molecules from weak to strong by IC50 [1], led by results:

IC50 [1]	Molecule	further results
1410 nM	NC(=O)NCCC[C@H](NCc1cc(Cl)c(OCc2cccc(-c3ccccc3)c2Br)cc1OCC1CC1)C(=O)O [Example 11, N-(4-(2-bromo-3-phenylbenzyloxy)-5-chloro-2-(cyclopropylmethoxy)benzyl)Citrulline]	–
1000 nM	CC(=O)NCCNCc1cc(Cl)c(OCc2cccc(-c3ccccc3)c2Br)cc1OCC1CC1 [Example 10, N-acetylaminoethyl-4-(2-bromo-3-phenylbenzyloxy)-5-chloro-2-(cyclopropylmethoxy)benzylamine]	–
732 nM	COc1cc(OCc2cccc(-c3ccccc3)c2Br)c(Cl)cc1CNCCNC(C)=O [Example 2, N-acetylaminoethyl-4-(2-bromo-3-phenylbenzyloxy)-5-chloro-2-methoxy benzylamine hydrochloride]	–
191 nM	CON(C)C(=O)COc1cc(OCc2cccc(-c3ccccc3)c2Br)c(Cl)cc1CN[C@@H](CO)C(=O)O [Example 12, N-(4-(2-bromo-3-phenylbenzyloxy)-5-chloro-2-(N-methoxy-N-methylcarbamoylmethoxy)benzyl)serine]	–
183 nM	O=C(COc1cc(OCc2cccc(-c3ccccc3)c2Br)c(Cl)cc1CN1CCCC[C@H]1C(=O)O)NO [Example 15, (S)—N-(4-(2-bromo-3-phenylbenzyloxy)-5-chloro-2-(N-hydroxycarbamoylmethoxy)benzyl)Pipecolinic Acid]	–
126 nM	C=CCOc1cc(OCc2cccc(-c3ccccc3)c2Br)c(Cl)cc1CNCCNC(C)=O [Example 3, N-acetylaminoethyl-4-(2-bromo-3-phenylbenzyloxy)-5-chloro-2-allyloxy benzylamine]	–
41.7 nM	O=C(O)[C@H](CO)NCc1cc(Cl)c(OCc2cccc(-c3ccccc3)c2Br)cc1OCC1CC1 [Example 14, (S)—N-(4-(2-bromo-3-phenylbenzyloxy)-5-chloro-2-(cyclopropylmethoxy)benzyl)serine]	–
41.3 nM	O=C(O)[C@H](CO)NCc1cc(Cl)c(OCc2cccc(-c3ccccc3)c2Br)cc1OCC(=O)N1CCOCC1 [Example 13, N-(4-(2-bromo-3-phenylbenzyloxy)-5-chloro-2-(2-morpholino-2-oxoethoxy)benzyl)serine]	–
10.2 nM	C[C@@H](O)[C@H](NCc1cc(Cl)c(OCc2cccc(-c3ccccc3)c2Br)cc1OCC1CC1)C(=O)O [Example 8, N-(4-(2-bromo-3-phenylbenzyloxy)-5-chloro-2-(cyclopropylmethoxy)benzyl)threonine]	–
